Reference: publication PMC5430962, “Retro-inverso Urokinase Receptor Antagonists for the Treatment of Metastatic Sarcomas” (Scientific Reports, 2017)
[ ]: non-standard residue; d: D form. Aib = CC(C)(N)C(=O)O

Tests used:
FPR1 = biological target: T1, FPR1 (Homo sapiens, UniProt P21462); assay: Ligand binding assay: FITC-fMLF binding to RBL-2H3/ETFR cells; conditions: 100 nM unlabeled peptide 60 min at 4 °C, then 10 nM FITC-fMLF 60 min at 4 °C; fluorescence plate reader
T1 construct: expressed in transfected cells; host or cells: rat basophilic leukaemia RBL-2H3/ETFR cells (gift of F. Blasi)
T1 sequence (P21462 1-350): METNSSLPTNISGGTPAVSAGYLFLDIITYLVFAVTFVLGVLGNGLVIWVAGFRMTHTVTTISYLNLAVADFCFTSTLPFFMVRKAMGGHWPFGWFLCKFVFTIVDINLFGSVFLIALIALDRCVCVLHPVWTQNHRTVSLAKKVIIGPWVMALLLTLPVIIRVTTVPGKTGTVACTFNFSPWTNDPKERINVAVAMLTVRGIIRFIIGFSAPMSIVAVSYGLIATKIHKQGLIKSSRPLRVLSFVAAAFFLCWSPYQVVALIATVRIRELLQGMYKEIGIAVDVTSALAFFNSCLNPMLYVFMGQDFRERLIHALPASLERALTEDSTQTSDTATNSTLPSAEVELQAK
Method: RBL-2H3 cells, RBL-2H3/ETFR cells stably expressing FPR1 (1.5 × 10^6 cells/sample) were pre-incubated with diluents or the indicated unlabeled peptides for 60 min at 4 °C, extensively rinsed with phosphate buffer saline (PBS), exposed to 10 nM FITC-fMLF (Molecular Probes) in PBS for additional 60 min at 4 °C and again rinsed with PBS. Cell-associated fluorescence was quantitated with the fluorescence plate reader Victor 3 (Perkin Elmer) using 485 nm excitation and 535 nm emission filters. The experiments were performed three times in triplicate.

[1] = system: GFP-Sarc cells on HUVEC monolayer; assay: GFP-Sarc cell adhesion onto endothelium; assay type: cell-based, human; conditions: 10 nM
Method: GFP-tagged Sarc cells were seeded on an endothelial monolayer as previously described. Briefly, sterile round glass coverslips (12 mm in diameter) were coated with 1:8 diluted matrigel (Becton Dickinson). HUVEC (5 × 10^4 cells in 200 μL/well) were seeded onto matrigel and allowed to form a monolayer for ~24 hr at 37 °C, 5% CO2 prior to seeding GFP-Sarc cells (1 × 10^4 cells/well) suspended in complete endothelial medium plus diluents or 10 nM RI-3. At the indicated times, cell-associated fluorescence was assessed by reading cells with the fluorescence plate reader. In a subset of experiments, after 2 hr, cells were stained with rhodamine-conjugated phalloidin and green fluorescent Sarc cells were identified on multiple z-series collected at 0.20 µm intervals using a confocal microscope (Carl Zeiss).

HUVECs = assay: Endothelial cell tube formation on matrigel; assay type: cell-based, human; conditions: 10 nM, three experiments in duplicate
Method: The formation of vascular-like structures was assessed on a matrigel basement membrane matrix preparation. HUVEC (4 × 10^4 cells/well) were suspended in 300 µl pre-warmed serum-free medium. Diluents or effectors were added to the cell suspension prior to seeding cells on polymerized growth factor-reduced matrigel (100 µl/well) (Becton Dickinson). Assays were carried out for 6 hr at 37 °C in humidified air with 5% CO2 as described. To quantify tube formation, five random areas/well at 100× magnification were imaged and the number of tubes formed by cord-like structures exceeding 100 μm in length, measured using Axiovision 4.4 software (Carl Zeiss), were counted. The experiments were performed three times in duplicate.

HT1080 cells = assay: Cell proliferation, MTS assay; assay type: cell-based, human; conditions: 10 µM in growth medium, replaced every 24 hr
Method: Cell proliferation was assessed using the xCELLigence RTCA technology as described. Cells (2 × 10^3/well) were seeded in E-well plates in growth medium and left to growth for 85 hr in the presence or the absence of 10 µM RI-3. For MTS assay, cells seeded on plates in growth medium plus/minus 10 µM RI-3, were allowed to proliferate at 37 °C in 5% CO2 and the absorbance of adherent cells stained with tetrazolium/formazan was assessed with a microplate reader. In both cases, medium with or without RI-3 was replaced every 24 hr. Data are the means ± SD of three independent experiments, performed in triplicate.

GFP-tagged Sarc cells = assay: Growth and spread of subcutaneous GFP-tagged Sarc tumors in nude mice; assay type: in vivo, Foxn1nu/nu female nude mice; conditions: five mice per group
Method: To evaluate the effect of RI-3 on tumor growth and vascularization, Sarc cells were injected, as a single-cell suspension (1 × 10^6 cells in 100 µl of sterile PBS, 97% viability), subcutaneously in the flanks of sixteen six-eight weeks old, Foxn1nu/nu female nude mice (Harlan). Animals were randomized into two 8-mice groups with the treatment group receiving 6 mg/kg RI-3 by intra-peritoneal injection every 24 hr, and the control group receiving an equivalent injected volume of vehicle (PBS) only. Time-dependent average weight was monitored every two days. The length and the width of tumors were measured at different time points with a calliper and volumes were calculated using the formula: ½ × (width)[2] × length (mm). After 10 days, blood samples (at least 500 µL/mouse) from the retro-orbital venous plexus of mice anesthetized with 1% isoflurane were collected using a heparinized capillary tube and processed for determination of the Circulating Tumor Cells (CTCs). Then, the animals were sacrificed, the excised tumors were fixed in buffered formalin and processed for paraffin sectioning. Tumor vascularization was assessed by counting vascular channels harbouring red blood cells on CD31 immuno-stained sections in 5 randomly chosen fields per section, in at least two sections per tumor at x 200 as described. Two additional experiments were carried out with the same experimental design by injecting GFP-tagged Sarc cells (1 × 10^6 cells/mouse) subcutaneously in the flanks of twenty-five six-eight weeks old, Foxn1nu/nu female nude mice (Harlan). Animals were treated with 6 mg/kg RI-3, 6 mg/kg RERF or vehicle by intra-peritoneal injection every 24 hr for 10 or 12 days. Tumor growth and the appearance of positive tumor lesions near tumors and in lungs were monitored as brightly visualized by GFP fluorescence with a MacroFluo fluorescence stereomicroscope (Leica). We searched for the presence of GFP-positive nodules on the entire surface of freshly isolated lungs. Lungs were also sliced at approximately 3-mm thickness to examine the parenchyma in depth, and the positive nodules were acquired at higher magnification.

Ac-[dY][dR][Aib][dR]-NH2 (SMILES CC(=O)N[C@H](Cc1ccc(O)cc1)C(=O)N[C@H](CCCNC(=N)N)C(=O)NC(C)(C)C(=O)N[C@H](CCCNC(=N)N)C(N)=O) [RI-3]
effect on binding of FITC-fMLF to RBL-2H3/ETFR cells (FPR1): prevented binding of FITC-fMLF to RBL-2H3/ETFR cells to a similar extent as compared to fMLF as well as RERF | reduction of cell-associated fluorescence (adhesion to endothelium) ([1]; after 5 min): 72% | reduction of cell-associated fluorescence (adhesion to endothelium) ([1]; after 10 min): 50% | reduction of cell-associated fluorescence (adhesion to endothelium) ([1]; after 20 min): 20% | reduction of cell-associated fluorescence (adhesion to endothelium) ([1]; after 40 min): 22% | reduction of VEGF-dependent endothelial capillary-like structures (HUVECs; EBM plus 40 ng/mL VEGF165, 6 hr on matrigel): 75% | reduction of FBS-dependent endothelial capillary-like structures (HUVECs; EBM plus 10% FBS, 6 hr on matrigel): 61% | effect on number of metabolically active cells (MTS) (HT1080 cells): no difference was apparent | changes in body weight (GFP-tagged Sarc cells; 6 mg/Kg i.p. every day for 12 days): did not cause changes in body weight | lungs with GFP-positive nodules (MacroFluo) (GFP-tagged Sarc cells; 6 mg/Kg i.p. every day for 12 days, untreated 3/5): negative | volume of tumors after 12 days (GFP-tagged Sarc cells; 6 mg/Kg i.p. every day for 12 days, vehicle 678 +/− 169): 381 +/− 123 mm^3 | animals with subcutaneous GFP-positive lesions distant at least one centimeter from the primary tumors (GFP-tagged Sarc cells; set-up experiment, 6 mg/Kg i.p. every day, sacrifice after 12 days, vehicle 4/5): 2/5
